Patent US8758816B2, “Compositions comprising azelastine and methods of use thereof” (priority 2004, dated 2014)

Test system: patients with seasonal allergic rhinitis (SAR)
Assay: MP 428 study: individual symptom severity scores (runny nose, itchy nose, sneezing, congestion; 0-3 scale)
Assay type: in vivo, human
Details: Intent-to-Treat Population
Method: A two-week, randomized, double-blind study, which evaluated the effects of the co-administration of ASTELIN® (azelastine hydrochloride (HCl)) and FLONASE® (fluticasone propionate) compared to either product alone in patients with seasonal allergic rhinitis (SAR) was conducted during the 2006 Texas mountain cedar season. After a 5-day placebo lead-in period, 151 patients with moderate-to-severe allergic rhinitis symptoms were randomized to either: (1) (49 total patients) ASTELIN® (azelastine hydrochloride (HCl)) plus placebo saline nasal spray 2 sprays per nostril, 15 minutes apart, twice daily (AM & PM); (2) (50 total patients) FLONASE® (fluticasone propionate) plus placebo saline nasal spray, 2 sprays per nostril, 15 minutes apart, once daily (AM) and two sessions of placebo saline nasal spray, 2 sprays per nostril, 15 minutes apart (PM); or (3) (52 total patients) the co-administration of ASTELIN® (azelastine hydrochloride (HCl)) 2 sprays per nostril plus FLONASE® (fluticasone propionate) 2 sprays per nostril (AM), 15 minutes apart, and ASTELIN® (azelastine hydrochloride (HCl)) 2 sprays per nostril plus placebo saline nasal spray, 15 minutes apart, (PM) for a 2-week double-blind treatment period.
The primary efficacy variable was the change from baseline in the Total Nasal Symptom Score (TNSS), which comprised sneezing, itchy nose, runny nose, and nasal congestion (individual symptoms scores were assigned a value between 0 and 3, where 0=no symptoms and 3=severe symptoms). This study was not statistically designed to assess the differences between ASTELIN® and FLONASE®.
The results of the clinical trial are summarized and presented in Appendix A hereinbelow and in FIGS. 1-6. […] FIGS. 2-5 show the mean improvement in severity score (0-3 scale) from baseline for the symptoms of runny nose, itchy nose, sneezing and congestion, respectively.

For `CCC(=O)O[C@]1(C(=O)SCF)[C@H](C)C[C@H]2[C@@H]3C[C@H](F)C4=CC(=O)C=C[C@]4(C)[C@@]3(F)[C@@H](O)C[C@@]21C` [Fluticasone, fluticasone propionate], the “Percent Change from Baseline in AM and PM Combined Nasal Symptom Score: Congestion, LS Mean” value (“Percent Change … Congestion, LS Mean” below) (Day 12) was −26.02%, the “Percent Change from Baseline in AM and PM Combined Nasal Symptom Score: Congestion, Mean” value (from here on “Percent Change from Baseline … Congestion, Mean”) (Day 12) was −27.05% and the “Percent Change from Baseline in AM and PM Combined Nasal Symptom Score: Congestion, Median” value (“Percent Change … Congestion, Median” below) (Day 12) was −27.93%. The “Percent Change from Baseline in AM and PM Combined Nasal Symptom Score: Itchy Nose, LS Mean” value (“Percent Change … Itchy Nose, LS Mean” for short) (Day 12) was −29.96%, the “Percent Change from Baseline in AM and PM Combined Nasal Symptom Score: Itchy Nose, Mean” value (shortened to “Percent Change from Baseline … Itchy Nose, Mean”) (Day 12) was −29.58% and the “Percent Change from Baseline in AM and PM Combined Nasal Symptom Score: Itchy Nose, Median” value (“Percent Change … Itchy Nose, Median” for short) (Day 12) was −30.22%. For the same compound, the “Percent Change from Baseline in AM and PM Combined Nasal Symptom Score: Runny Nose, LS Mean” value (from here on “Percent Change … Runny Nose, LS Mean”) (Day 12) was −31.33%, the “Percent Change from Baseline in AM and PM Combined Nasal Symptom Score: Runny Nose, Mean” value (shortened to “Percent Change from Baseline … Runny Nose, Mean”) (Day 12) was −31.86% and the “Percent Change from Baseline in AM and PM Combined Nasal Symptom Score: Runny Nose, Median” value (“Percent Change … Runny Nose, Median” for short) (Day 12) was −25.62%. For the same compound, the “Percent Change from Baseline in AM and PM Combined Nasal Symptom Score: Sneezing, LS Mean” value (from here on “Percent Change from Baseline … Sneezing, LS Mean”) (Day 12) was −33.86%, the “Percent Change from Baseline in AM and PM Combined Nasal Symptom Score: Sneezing, Mean” value (“Percent Change from Baseline … Sneezing, Mean” for short) (Day 12) was −31.18% and the “Percent Change from Baseline in AM and PM Combined Nasal Symptom Score: Sneezing, Median” value (from here on “Percent Change from Baseline … Sneezing, Median”) (Day 12) was −35.69%. For the same compound, the “Change from Baseline in AM and PM Combined Nasal Symptom Score: Congestion, LS Mean” value (Day 13) was −1.55, the “Change from Baseline in AM and PM Combined Nasal Symptom Score: Congestion, Mean” value (Day 13) was −1.59 and the “Change from Baseline in AM and PM Combined Nasal Symptom Score: Congestion, Median” value (Day 13) was −1.43. The “Change from Baseline in AM and PM Combined Nasal Symptom Score: Itchy Nose, LS Mean” value (Day 13) was −1.64, the “Change from Baseline in AM and PM Combined Nasal Symptom Score: Itchy Nose, Mean” value (Day 13) was −1.62 and the “Change from Baseline in AM and PM Combined Nasal Symptom Score: Itchy Nose, Median” value (Day 13) was −1.42. The “Change from Baseline in AM and PM Combined Nasal Symptom Score: Runny Nose, LS Mean” value (Day 13) was −1.78, the “Change from Baseline in AM and PM Combined Nasal Symptom Score: Runny Nose, Mean” value (Day 13) was −1.78 and the “Change from Baseline in AM and PM Combined Nasal Symptom Score: Runny Nose, Median” value (Day 13) was −2.00. The “Change from Baseline in AM and PM Combined Nasal Symptom Score: Sneezing, LS Mean” value (Day 13) was −1.98, the “Change from Baseline in AM and PM Combined Nasal Symptom Score: Sneezing, Mean” value (Day 13) was −1.84 and the “Change from Baseline in AM and PM Combined Nasal Symptom Score: Sneezing, Median” value (Day 13) was −1.83. For the same compound, the “Percent Change … Congestion, LS Mean” value (Day 13) was −28.59%, the “Percent Change from Baseline … Congestion, Mean” value (Day 13) was −28.95% and the “Percent Change … Congestion, Median” value (Day 13) was −26.38%. For the same compound, the “Percent Change … Itchy Nose, LS Mean” value (Day 13) was −31.14%, the “Percent Change from Baseline … Itchy Nose, Mean” value (Day 13) was −30.81% and the “Percent Change … Itchy Nose, Median” value (Day 13) was −31.23%. The “Percent Change … Runny Nose, LS Mean” value (Day 13) was −30.96%, the “Percent Change from Baseline … Runny Nose, Mean” value (Day 13) was −30.84% and the “Percent Change … Runny Nose, Median” value (Day 13) was −33.33%. For the same compound, the “Percent Change from Baseline … Sneezing, LS Mean” value (Day 13) was −42.84%, the “Percent Change from Baseline … Sneezing, Mean” value (Day 13) was −40.87% and the “Percent Change from Baseline … Sneezing, Median” value (Day 13) was −35.42%. The “Change from Baseline in AM and PM Combined Nasal Symptom Score: Congestion, LS Mean” value (Day 14) was −1.53, the “Change from Baseline in AM and PM Combined Nasal Symptom Score: Congestion, Mean” value (Day 14) was −1.59 and the “Change from Baseline in AM and PM Combined Nasal Symptom Score: Congestion, Median” value (Day 14) was −1.30. For the same compound, the “Change from Baseline in AM and PM Combined Nasal Symptom Score: Itchy Nose, LS Mean” value (Day 14) was −1.76, the “Change from Baseline in AM and PM Combined Nasal Symptom Score: Itchy Nose, Mean” value (Day 14) was −1.74 and the “Change from Baseline in AM and PM Combined Nasal Symptom Score: Itchy Nose, Median” value (Day 14) was −1.57. For the same compound, the “Change from Baseline in AM and PM Combined Nasal Symptom Score: Runny Nose, LS Mean” value (Day 14) was −1.89, the “Change from Baseline in AM and PM Combined Nasal Symptom Score: Runny Nose, Mean” value (Day 14) was −1.88 and the “Change from Baseline in AM and PM Combined Nasal Symptom Score: Runny Nose, Median” value (Day 14) was −2.15. The “Change from Baseline in AM and PM Combined Nasal Symptom Score: Sneezing, LS Mean” value (Day 14) was −1.87, the “Change from Baseline in AM and PM Combined Nasal Symptom Score: Sneezing, Mean” value (Day 14) was −1.70 and the “Change from Baseline in AM and PM Combined Nasal Symptom Score: Sneezing, Median” value (Day 14) was −1.83. For the same compound, the “Percent Change … Congestion, LS Mean” value (Day 14) was −28.37%, the “Percent Change from Baseline … Congestion, Mean” value (Day 14) was −29.09% and the “Percent Change … Congestion, Median” value (Day 14) was −24.53%. For the same compound, the “Percent Change … Itchy Nose, LS Mean” value (Day 14) was −33.39%, the “Percent Change from Baseline … Itchy Nose, Mean” value (Day 14) was −33.38% and the “Percent Change … Itchy Nose, Median” value (Day 14) was −33.33%. For the same compound, the “Percent Change … Runny Nose, LS Mean” value (Day 14) was −36.10%, the “Percent Change from Baseline … Runny Nose, Mean” value (Day 14) was −35.65% and the “Percent Change … Runny Nose, Median” value (Day 14) was −41.75%. The “Percent Change from Baseline … Sneezing, LS Mean” value (Day 14) was −39.31%, the “Percent Change from Baseline … Sneezing, Mean” value (Day 14) was −36.07% and the “Percent Change from Baseline … Sneezing, Median” value (Day 14) was −33.94%. The “Change from Baseline in AM and PM Combined Nasal Symptom Score: Congestion, LS Mean” value (Overall (Day 2 to Day 14)) was −1.14, the “Change from Baseline in AM and PM Combined Nasal Symptom Score: Congestion, Mean” value (Overall (Day 2 to Day 14)) was −1.19 and the “Change from Baseline in AM and PM Combined Nasal Symptom Score: Congestion, Median” value (Overall (Day 2 to Day 14)) was −0.99. For the same compound, the “Change from Baseline in AM and PM Combined Nasal Symptom Score: Itchy Nose, LS Mean” value (Overall (Day 2 to Day 14)) was −1.25, the “Change from Baseline in AM and PM Combined Nasal Symptom Score: Itchy Nose, Mean” value (Overall (Day 2 to Day 14)) was −1.24 and the “Change from Baseline in AM and PM Combined Nasal Symptom Score: Itchy Nose, Median” value (Overall (Day 2 to Day 14)) was −0.95. The “Change from Baseline in AM and PM Combined Nasal Symptom Score: Runny Nose, LS Mean” value (Overall (Day 2 to Day 14)) was −1.34, the “Change from Baseline in AM and PM Combined Nasal Symptom Score: Runny Nose, Mean” value (Overall (Day 2 to Day 14)) was −1.36 and the “Change from Baseline in AM and PM Combined Nasal Symptom Score: Runny Nose, Median” value (Overall (Day 2 to Day 14)) was −1.04. For the same compound, the “Change from Baseline in AM and PM Combined Nasal Symptom Score: Sneezing, LS Mean” value (Overall (Day 2 to Day 14)) was −1.52, the “Change from Baseline in AM and PM Combined Nasal Symptom Score: Sneezing, Mean” value (Overall (Day 2 to Day 14)) was −1.44 and the “Change from Baseline in AM and PM Combined Nasal Symptom Score: Sneezing, Median” value (Overall (Day 2 to Day 14)) was −1.34. The “Percent Change … Congestion, LS Mean” value (Overall (Day 2 to Day 14)) was −21.11%, the “Percent Change from Baseline … Congestion, Mean” value (Overall (Day 2 to Day 14)) was −21.68% and the “Percent Change … Congestion, Median” value (Overall (Day 2 to Day 14)) was −18.72%. For the same compound, the “Percent Change … Itchy Nose, LS Mean” value (Overall (Day 2 to Day 14)) was −25.54%, the “Percent Change from Baseline … Itchy Nose, Mean” value (Overall (Day 2 to Day 14)) was −25.67% and the “Percent Change … Itchy Nose, Median” value (Overall (Day 2 to Day 14)) was −18.89%. For the same compound, the “Percent Change … Runny Nose, LS Mean” value (Overall (Day 2 to Day 14)) was −23.02%, the “Percent Change from Baseline … Runny Nose, Mean” value (Overall (Day 2 to Day 14)) was −23.19% and the “Percent Change … Runny Nose, Median” value (Overall (Day 2 to Day 14)) was −21.99%. For the same compound, the “Percent Change from Baseline … Sneezing, LS Mean” value (Overall (Day 2 to Day 14)) was −31.80%, the “Percent Change from Baseline … Sneezing, Mean” value (Overall (Day 2 to Day 14)) was −31.11% and the “Percent Change from Baseline … Sneezing, Median” value (Overall (Day 2 to Day 14)) was −33.13%.
